Laboratory results published in patent US10993957B2 (NuCana plc, priority 2011, dated 2021).
Where two headings read alike, the source gives them in different places.

Key:
L1210/0 = assay: Cytostatic assay, L1210/0 cells; type: cell-based, murine; conditions: for IC50: read-out: IC50 L1210/0
Description: (§1) The cell lines employed were L1210/0 (a leukemia cell line), FM3A/0 (a breast cancer cell line), Cem/0 (an acute lymphoblastic leukemia cell line) and HeLa (a cervical cell line).

L1210/TK^− = assay: Cytostatic assay, thymidine kinase-deficient L1210/TK^− cells; type: cell-based, murine; conditions: for IC50: Table 6, read-out: IC50 L1210/TK^−; for CC50: L1210, Table 1, read-out: CC50 L1210/TK^−
Cem/0 = assay: Cytostatic assay, CEM/0 cells; type: cell-based, human; conditions: for IC50: Table 6, read-out: IC50 Cem/0; for CC50: Table 1, read-out: CC50 Cem/0
Description: as §1

Cem/TK^− = assay: Cytostatic assay, thymidine kinase-deficient CEM/TK^− cells; type: cell-based, human; conditions: for IC50: Table 6, read-out: IC50 Cem/TK^−; for CC50: Table 1, read-out: CC50 Cem/TK^−
HeLa = assay: Cytostatic assay, HeLa cells; type: cell-based; conditions: for IC50: Table 6, read-out: IC50 HeLa; for CC50: Table 1, read-out: CC50 HeLa
Description: as §1

HeLa/TK^− = assay: Cytostatic assay, HeLa/TK^− cells; type: cell-based; conditions: for IC50: Table 6, read-out: IC50 HeLa/TK^−; for CC50: Table 1, read-out: CC50 HeLa/TK^−
Description: as §1

L1210.Hyor = assay: Cytostatic assay, Mycoplasma hyorhinis-infected L1210 cells; conditions: for % Retention: CC50 L1210 × 100 ÷ CC50 L1210/Hyor; for CC50: L1210, read-out: CC50 L1210/Hyor
Description: Murine leukaemia L1210/0 and human T-lymphocyte CEM/0 cells were obtained from the American Type Culture Collection (ATCC) (Rockville, Md.). Human glioblastoma U87 cells were kindly provided by Dr. E. Menue (Institut Pasteur, Paris, France). […] S. Eriksson (currently at Uppsala University, Uppsala, Sweden) and Prof A. Karlsson (Karolinska Institute, Stockholm, Sweden). […] All cells were maintained in Dulbecco's modified Eagle's medium (DMEM) (Invitrogen, Carlsbad, Calif.) with 10% foetal bovine serum (FBS) (Biochrom AG, Berlin, Germany), 10 mM Hepes and 1 mM Sodium Pyruvate (Invitrogen). Cells were grown at 37° C. in a humidified incubator with a gas phase of 5% CO2.
Monolayer cells (U87 and U87.Hyor) were seeded in 48-well microtiter plates (Nunc™, Roskilde, Denmark) at 10,000 cells/well. After 24 hours, an equal volume of fresh medium containing the test compounds was added. On day 5, cells were trypsinized and counted in a Coulter counter (Analis, Suarlée, Belgium). Suspension cells (L1210/0, L1210/TK^−, L1210.Hyor, CEM/0, CEM/TK^−) were seeded in 96-well microtiter plates (Nunc™) at 60,000 cells/well in the presence of a given amount of the test compounds. The cells were allowed to proliferate for 48 h (L1210) or 72 hours (CEM) and were then counted in a Coulter counter.
Samples were also assayed for their % retention of activity in mycoplasma infected cells.
The L1210/0 cell cultures were infected with the mycoplasma species M. hyorhinis (cells designated: L1210.Hyor).

[1] = read-out: IC50 L1210.Hyor, Table 7
[2] = Mus musculus, L1210/0, Table 1, read-out: CC50 L1210/0
[3] = Mus musculus, L1210/0, Table 2, mycoplasma negative cells, read-out: CC50 L1210
[4] = Mus musculus, L1210, read-out: IC50 L1210.Hyor

`CCCOC(=O)C(C)NP(=O)(OCC1OC(n2cc(F)c(=O)[nH]c2=O)CC1O)Oc1cccc2ccccc12` (stereo not drawn) [Nap Pr Ala] showed an IC50 (L1210/0; Table 6) of 21 ± 12 nM, an IC50 (L1210/0; Table 7) of 30 ± 0.35 nM and an IC50 (L1210/TK^−) of 160 ± 70 nM. For the same molecule, the IC50 (Cem/0) was 140 ± 10 nM, the IC50 (Cem/TK^−) was 1100 ± 200 nM and the IC50 (HeLa) was 110 ± 30 nM. The IC50 (HeLa/TK^−) was 2500 ± 100 nM, the “IC50(L1210.Hyor)/IC50(L1210/0)” value (L1210.Hyor; Table 7) was 1.2 and the IC50 (L1210.Hyor; [1]) was 36 ± 6.4 nM.

`CCCCOC(=O)[C@H](C)NP(=O)(OC[C@H]1O[C@@H](n2cc(F)c(=O)[nH]c2=O)CC1O)Oc1cccc2ccccc12` (stereo partly drawn) [CPF 589, 5-Fluoro-2′-deoxyuridine-5′-O-[1-naphthyl-(butoxy-L-alaninyl)] phosphate] showed a CC50 (L1210/0; [2]) of 22 ± 4 nM, a CC50 (L1210/0; [3]) of 20 nM and an IC50 (L1210/0; Mus musculus, L1210/0, Table 6) of 22 ± 4 nM. The IC50 (L1210/0; Mus musculus, L1210/0, Table 7) was 9.5 ± 2.1 nM, the CC50 (L1210/TK^−; Mus musculus) was 110 ± 60 nM and the IC50 (L1210/TK^−; Mus musculus, L1210) was 110 ± 60 nM. The CC50 (Cem/0; Homo sapiens, CCRF-CEM) was 64 ± 7 nM, the IC50 (Cem/0; Homo sapiens, CCRF-CEM) was 64 ± 7 nM and the CC50 (Cem/TK^−; Homo sapiens, CEM-TK(-)) was 840 ± 600 nM. It also gave an IC50 (Cem/TK^−; Homo sapiens, CEM-TK(-)) of 840 ± 600 nM, a CC50 (HeLa; Homo sapiens, HeLa) of 120 ± 20 nM and an IC50 (HeLa; Homo sapiens, HeLa) of 120 ± 20 nM. The CC50 (HeLa/TK^−; Homo sapiens, HeLa) was 2700 ± 1500 nM, the IC50 (HeLa/TK^−; Homo sapiens, HeLa) was 2700 ± 1500 nM and the “% Retention” value (L1210.Hyor) was 32%. The CC50 (L1210.Hyor; Mus musculus) was 63 nM, the IC50 (L1210.Hyor; [4]) was 21 ± 7.1 nM and the “IC50(L1210.Hyor)/IC50(L1210/0)” value (L1210.Hyor; Table 7) was 2.2.

For `CC(C)CC(NP(=O)(OCC1OC(n2cc(F)c(=O)[nH]c2=O)CC1O)Oc1ccccc1)C(=O)OCc1ccccc1` (stereo not drawn) [Ph Bn Leu], the IC50 (L1210/0; Table 6) was 44 ± 25 nM, the IC50 (L1210/0; Table 7) was 54 ± 2.1 nM and the IC50 (L1210/TK^−) was 2000 ± 300 nM. For the same molecule, the IC50 (Cem/0) was 240 ± 40 nM, the IC50 (Cem/TK^−) was 16000 ± 1000 nM and the IC50 (HeLa) was 67 ± 42 nM. For the same molecule, the IC50 (HeLa/TK^−) was 5600 ± 300 nM, the “IC50(L1210.Hyor)/IC50(L1210/0)” value (L1210.Hyor; Table 7) was 3.2 and the IC50 (L1210.Hyor; [1]) was 170 ± 47 nM.

In the case of `C[C@H](NP(=O)(OC[C@H]1O[C@@H](n2cc(F)c(=O)[nH]c2=O)CC1O)Oc1cccc2ccccc12)C(=O)OC1CCCC1` (stereo partly drawn) [CPF 582, 5-Fluoro-2′-deoxyuridine-5′-O-[1-naphthyl-(cyclopentoxy-L-alaninyl)]phosphate], the CC50 (L1210/0; [2]) is reported as 31 ± 10 nM, the CC50 (L1210/0; [3]) is reported as 35 nM and the IC50 (L1210/0; Mus musculus, L1210/0, Table 6) is reported as 31 ± 10 nM. It also gave an IC50 (L1210/0; Mus musculus, L1210/0, Table 7) of 16 ± 0.7 nM, a CC50 (L1210/TK^−; Mus musculus) of 130 ± 20 nM and an IC50 (L1210/TK^−; Mus musculus, L1210) of 130 ± 20 nM. It also gave a CC50 (Cem/0; Homo sapiens, CCRF-CEM) of 35 ± 25 nM, an IC50 (Cem/0; Homo sapiens, CCRF-CEM) of 350 ± 25 nM and a CC50 (Cem/TK^−; Homo sapiens, CEM-TK(-)) of 920 ± 7 nM. The IC50 (Cem/TK^−; Homo sapiens, CEM-TK(-)) was 920 ± 7 nM, the CC50 (HeLa; Homo sapiens, HeLa) was 71 ± 36 nM and the IC50 (HeLa; Homo sapiens, HeLa) was 71 ± 36 nM. The CC50 (HeLa/TK^−; Homo sapiens, HeLa) was 2200 ± 1300 nM, the IC50 (HeLa/TK^−; Homo sapiens, HeLa) was 2200 ± 1300 nM and the “% Retention” value (L1210.Hyor) was 83%. For the same molecule, the CC50 (L1210.Hyor; Mus musculus) was 42 nM, the IC50 (L1210.Hyor; [4]) was 24 ± 5 nM and the “IC50(L1210.Hyor)/IC50(L1210/0)” value (L1210.Hyor; Table 7) was 1.5.

`C[C@H](NP(=O)(OC[C@H]1O[C@@H](n2cc(F)c(=O)[nH]c2=O)CC1O)Oc1cccc2ccccc12)C(=O)OCC1CC1` (stereo partly drawn) [CPF 579, 5-Fluoro-2′-deoxyuridine-5′-O-[1-naphthyl-(cyclopropylmethanoxy-L-alaninyl)] phosphate] showed a CC50 (L1210/0; [2]) of 17 ± 7 nM, a CC50 (L1210/0; [3]) of 19 nM and an IC50 (L1210/0; Mus musculus, L1210/0, Table 6) of 17 ± 7 nM. It also gave an IC50 (L1210/0; Mus musculus, L1210/0, Table 7) of 14 ± 4.2 nM, a CC50 (L1210/TK^−; Mus musculus) of 120 ± 60 nM and an IC50 (L1210/TK^−; Mus musculus, L1210) of 120 ± 60 nM. It also gave a CC50 (Cem/0; Homo sapiens, CCRF-CEM) of 59 ± 17 nM, an IC50 (Cem/0; Homo sapiens, CCRF-CEM) of 59 ± 17 nM and a CC50 (Cem/TK^−; Homo sapiens, CEM-TK(-)) of 1100 ± 200 nM. For the same molecule, the IC50 (Cem/TK^−; Homo sapiens, CEM-TK(-)) was 1100 ± 200 nM, the CC50 (HeLa; Homo sapiens, HeLa) was 68 ± 1 nM and the IC50 (HeLa; Homo sapiens, HeLa) was 68 ± 1 nM. The CC50 (HeLa/TK^−; Homo sapiens, HeLa) was 1400 ± 400 nM, the IC50 (HeLa/TK^−; Homo sapiens, HeLa) was 1400 ± 400 nM and the “% Retention” value (L1210.Hyor) was 42%. The CC50 (L1210.Hyor; Mus musculus) was 45 nM, the IC50 (L1210.Hyor; [4]) was 31 ± 6.4 nM and the “IC50(L1210.Hyor)/IC50(L1210/0)” value (L1210.Hyor; Table 7) was 2.2.

Work on `C[C@H](NP(=O)(OC[C@H]1O[C@@H](n2cc(F)c(=O)[nH]c2=O)CC1O)Oc1cccc2ccccc12)C(=O)OCC(C)(C)C` (stereo partly drawn) [CPF 588, 5-Fluoro-2′-deoxyuridine-5′-O-[1-naphthyl-(2,2-dimethylpropoxy-L-alaninyl)] phosphate] yielded a CC50 (L1210/0; [2]) of 270 ± 110 nM, a CC50 (L1210/0; [3]) of 237 nM and an IC50 (L1210/0; Mus musculus, L1210/0, Table 6) of 270 ± 110 nM. It also gave an IC50 (L1210/0; Mus musculus, L1210/0, Table 7) of 93 ± 33 nM, a CC50 (L1210/TK^−; Mus musculus) of 1200 ± 700 nM and an IC50 (L1210/TK^−; Mus musculus, L1210) of 1200 ± 700 nM. For the same molecule, the CC50 (Cem/0; Homo sapiens, CCRF-CEM) was 490 ± 50 nM, the IC50 (Cem/0; Homo sapiens, CCRF-CEM) was 490 ± 50 nM and the CC50 (Cem/TK^−; Homo sapiens, CEM-TK(-)) was 6700 ± 1000 nM. It also gave an IC50 (Cem/TK^−; Homo sapiens, CEM-TK(-)) of 6700 ± 1000 nM, a CC50 (HeLa; Homo sapiens, HeLa) of 700 ± 110 nM and an IC50 (HeLa; Homo sapiens, HeLa) of 700 ± 110 nM. For the same molecule, the CC50 (HeLa/TK^−; Homo sapiens, HeLa) was 32000 ± 26000 nM, the IC50 (HeLa/TK^−; Homo sapiens, HeLa) was 32000 ± 26000 nM and the “% Retention” value (L1210.Hyor) was 61%. The CC50 (L1210.Hyor; Mus musculus) was 390 nM, the IC50 (L1210.Hyor; [4]) was 180 ± 69 nM and the “IC50(L1210.Hyor)/IC50(L1210/0)” value (L1210.Hyor; Table 7) was 1.9.

`CCCCCOC(=O)C(CC(C)C)NP(=O)(OCC1OC(n2cc(F)c(=O)[nH]c2=O)CC1O)Oc1cccc2ccccc12` (stereo not drawn) [Nap Pnt Leu] gave an IC50 (L1210/0; Table 6) of 17 ± 1 nM, an IC50 (L1210/0; Table 7) of 31 ± 2 nM and an IC50 (L1210/TK^−) of 1200 ± 400 nM. It also gave an IC50 (Cem/0) of 71 ± 8 nM, an IC50 (Cem/TK^−) of 15000 ± 4000 nM and an IC50 (HeLa) of 39 ± 14 nM. The IC50 (HeLa/TK^−) was 7500 ± 400 nM, the “IC50(L1210.Hyor)/IC50(L1210/0)” value (L1210.Hyor; Table 7) was 1.13 and the IC50 (L1210.Hyor; [1]) was 35 ± 10 nM.
